Results: patent US20220372433A1 (priority 2021, published 2022)

Assays:
Lactobacillus plantarum = system: Lactobacillus plantarum; parameters: unit not given here; settings: regulatory cut-off for Lactobacillus plantarum; cited from earlier work
[1] = system: Lactobacillus plantarum HG-23; test: Antibiotic sensitivity test (microdilution method, MIC); format: cell-based; settings: cultured for 48 h
Protocol: The antibiotic resistance of HG-23 was detected by a microdilution method. a series of 2-fold dilutions were performed on antibacterial drugs to be tested (Gentamicin, Kanamycin, Tetracycline, Erythromycin, Clindamycin, Chloramphenicol, Amplicilin, with initial concentrations of 1024 ug/ml, 256 ug/ml, 64 ug/ml, 8 ug/ml, 16 ug/ml, 64 ug/ml, 16 ug/ml) for 12 times, then added into corresponding wells of 96-well plates, and then […] diluted test bacterial solutions were added into the corresponding wells. After being cultured for 48 h, the minimum inhibitory concentration (MIC) well of the antibacterial drug, namely the sensitivity of the test strain, was observed.

Substance: Gentamicin
- EFSA specified safety value (Lactobacillus plantarum) (Lactobacillus plantarum): 16
- minimum inhibitory concentration (MIC) of antibiotic against HG-23 [1]: 8 µg/mL
